# Source: patent US9163013B2, “Use of 1H-indazole-3-carboxamide compounds as glycogen synthase kinase 3 beta inhibitors” (AZIENDE CHIMICHE RIUNITE ANGELINI FRANCESCO A.C.R.A.F. …, priority 2012, dated 2015)
# What was measured:
# [1] = target: CDK2 (h) (cycA) (Homo sapiens (Human), UniProt P24941); test: Kinase selectivity panel and IC50 determination; assay type: biochemical; conditions: 10 μM, duplicate; read-out: % inhibition of control values, CDK2 (h) (cycA)
# Method: (§1) (a) Compound 1 was tested against a panel of 60 kinases in order to assess its selectivity. The assays were chosen taking into consideration the diversity of assay families.
# (§2) Human recombinant kinases were incubated in the presence of specific peptide substrates plus ATP for different times (10, 15, 30, 60 or 90 minutes) at 22° C. Phosphorylated substrate was detected by LANCE or HTRF technology (CISBIO, MA, USA).
# (§3) Compound 1 was tested at 10 μM in duplicate.
# (§4) The results are expressed as a percent of inhibition of control specific activity obtained in the presence of the test compound 1 and are reported in the following Table 5.
# (§5) Compound 1 was also assayed to determine the IC50 values for three different kinases (PCTAIRE1, DYRK1a, and CDK2) in comparison to Gsk3β. The assay was conducted with the same method described above in test I, second assay.
# (§6) (b) Compounds 7, 12, 21 and 24 were tested against the same panel of 60 kinases under the same conditions described above for compound 1.
# (§7) The results are expressed as a percent of inhibition of control specific activity obtained in the presence of the test compounds and are reported in the following Table 6.
# [2] = target: DYRK1a (h) (Homo sapiens (Human), UniProt Q13627); test: Kinase selectivity panel and IC50 determination; assay type: biochemical; conditions: 10 μM, duplicate; read-out: % inhibition of control values, DYRK1a (h)
# Method: as §1, §2, §3, §4, §5, §6, §7
# [3] = target: PCTAIRE1 kinase (h) (Homo sapiens (Human), UniProt Q00536); test: Kinase selectivity panel and IC50 determination; assay type: biochemical; conditions: 10 μM, duplicate; read-out: % inhibition of control values, PCTAIRE1 kinase (h)
# PCTAIRE1 kinase (h), sequence (Q00536 whole entry): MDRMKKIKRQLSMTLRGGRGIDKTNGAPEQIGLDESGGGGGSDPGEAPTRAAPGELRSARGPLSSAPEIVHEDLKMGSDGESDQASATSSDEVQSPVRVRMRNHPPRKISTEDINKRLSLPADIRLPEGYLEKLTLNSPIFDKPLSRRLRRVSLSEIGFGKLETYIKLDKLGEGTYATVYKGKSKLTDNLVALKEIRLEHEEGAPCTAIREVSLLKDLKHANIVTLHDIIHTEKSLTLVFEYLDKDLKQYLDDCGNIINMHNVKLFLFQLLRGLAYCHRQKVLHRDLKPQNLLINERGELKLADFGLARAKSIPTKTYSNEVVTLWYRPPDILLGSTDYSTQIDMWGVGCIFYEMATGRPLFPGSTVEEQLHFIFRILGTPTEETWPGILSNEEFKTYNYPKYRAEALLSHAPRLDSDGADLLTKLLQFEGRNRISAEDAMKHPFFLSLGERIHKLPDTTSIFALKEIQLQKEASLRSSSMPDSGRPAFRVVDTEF
# Method: as §1, §2, §3, §4, §5, §6, §7
# [4] = target: T1, human GSK-3β (Homo sapiens (Human), UniProt P49841); test: LanthaScreen TR-FRET Eu Kinase binding and displacement assay; conditions: five concentrations 100 μM to 10 nM, duplicate
# T1 sequence (P49841 whole entry): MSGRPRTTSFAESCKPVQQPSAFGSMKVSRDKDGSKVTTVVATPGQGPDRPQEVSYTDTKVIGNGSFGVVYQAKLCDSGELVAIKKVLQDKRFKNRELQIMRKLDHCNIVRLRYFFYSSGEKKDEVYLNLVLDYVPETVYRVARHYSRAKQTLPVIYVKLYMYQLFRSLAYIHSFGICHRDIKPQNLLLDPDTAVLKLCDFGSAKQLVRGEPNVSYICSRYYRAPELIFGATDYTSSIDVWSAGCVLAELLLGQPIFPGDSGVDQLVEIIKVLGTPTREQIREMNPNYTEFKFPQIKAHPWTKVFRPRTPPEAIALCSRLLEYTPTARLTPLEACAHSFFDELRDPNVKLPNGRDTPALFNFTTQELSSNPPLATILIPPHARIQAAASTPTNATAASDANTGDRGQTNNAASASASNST
# Method: (§8) In a second assay, the same compounds were assayed at five concentrations ranging from 100 μM to 10 nM with ten-fold dilutions in duplicate. Compounds 1 to 7, 9, 11 and 13 to 26 were tested using the same first assay, compounds 8, 10, 12, and 27 to 31 were tested in another assay based on the binding and displacement of AlexaFluor® 647 labeled, ATP-competitive Kinase inhibitor scaffold using LanthaScreen™ TR-FRET technology Eu Kinase assay packet according to manufacturer's instruction (Life Technologies, Italy).
# (§9) The IC50 values (concentration causing a half maximal inhibition of control specific activity), reported in table 4, were determined by non-linear regression analysis of the inhibition curves generated with mean replicate values using Hill equation curve fitting.
# [5] = target: TAOK2 (TAO1) (h) (Homo sapiens (Human), UniProt Q9UL54); test: Kinase selectivity panel; assay type: biochemical; conditions: duplicate, read-out: % inhibition of control values, TAOK2 (TAO1) (h)
# Method: as §1, §2, §3, §4, §6, §7
# [6] = target: IRK (h) (InsR) (Homo sapiens (Human), UniProt P06213); test: Kinase selectivity panel; assay type: biochemical; conditions: duplicate, read-out: % inhibition of control values, IRK (h) (InsR)
# Method: as §1, §2, §3, §4, §6, §7
# [7] = target: ERK2 (h) (P42mapk) (Homo sapiens (Human), UniProt P28482); test: Kinase selectivity panel; assay type: biochemical; conditions: duplicate, read-out: % inhibition of control values, ERK2 (h) (P42mapk)
# ERK2 (h) (P42mapk), sequence (P28482 whole entry): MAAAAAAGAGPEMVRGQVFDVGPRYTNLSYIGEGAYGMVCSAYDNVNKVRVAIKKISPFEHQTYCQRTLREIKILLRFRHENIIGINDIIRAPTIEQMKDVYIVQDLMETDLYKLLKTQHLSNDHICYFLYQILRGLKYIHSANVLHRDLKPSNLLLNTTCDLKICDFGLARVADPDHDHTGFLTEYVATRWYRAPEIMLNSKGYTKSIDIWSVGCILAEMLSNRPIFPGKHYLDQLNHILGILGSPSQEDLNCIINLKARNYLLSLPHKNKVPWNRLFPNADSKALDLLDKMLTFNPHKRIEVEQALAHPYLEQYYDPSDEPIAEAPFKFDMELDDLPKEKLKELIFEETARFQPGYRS
# Method: as §1, §2, §3, §4, §6, §7
# [8] = target: CDK5/p35 (h) (Homo sapiens (Human), UniProt Q00535); test: Kinase selectivity panel; assay type: biochemical; conditions: duplicate, read-out: % inhibition of control values, CDK5/p35 (h)
# Method: as §1, §2, §3, §4, §6, §7
# [9] = target: smMLCK (h) (MYLK) (Homo sapiens (Human), UniProt Q15746); test: Kinase selectivity panel; assay type: biochemical; conditions: duplicate, read-out: % inhibition of control values, smMLCK (h) (MYLK)
# Method: as §1, §2, §3, §4, §6, §7
# [10] = target: NEK1 (h) (Homo sapiens (Human), UniProt Q96PY6); test: Kinase selectivity panel; assay type: biochemical; conditions: duplicate, read-out: % inhibition of control values, NEK1 (h)
# Method: as §1, §2, §3, §4, §6, §7
# [11] = target: CDC2/CDK1 (h) (cycB) (Homo sapiens (Human), UniProt P06493); test: Kinase selectivity panel; assay type: biochemical; conditions: duplicate, read-out: % inhibition of control values, CDC2/CDK1 (h) (cycB)
# Method: as §1, §2, §3, §4, §6, §7
# [12] = target: GSK3beta (h) (Homo sapiens (Human), UniProt P49841); test: Kinase selectivity panel; assay type: biochemical; conditions: for inhibition at 10 µM: duplicate, read-out: % inhibition of control values, GSK3beta (h); for Selectivity for GSK-3β compared to the other kinases of the panel: panel of 60 kinases, 10 μM
# GSK3beta (h), sequence (P49841 whole entry): as the sequence (P49841 whole entry) above
# Method: as §1, §2, §3, §4, §6, §7
# [13] = target: HGK (h) (MAP4K4) (Homo sapiens (Human), UniProt O95819); test: Kinase selectivity panel; assay type: biochemical; conditions: duplicate, read-out: % inhibition of control values, HGK (h) (MAP4K4)
# HGK (h) (MAP4K4), sequence (O95819 whole entry): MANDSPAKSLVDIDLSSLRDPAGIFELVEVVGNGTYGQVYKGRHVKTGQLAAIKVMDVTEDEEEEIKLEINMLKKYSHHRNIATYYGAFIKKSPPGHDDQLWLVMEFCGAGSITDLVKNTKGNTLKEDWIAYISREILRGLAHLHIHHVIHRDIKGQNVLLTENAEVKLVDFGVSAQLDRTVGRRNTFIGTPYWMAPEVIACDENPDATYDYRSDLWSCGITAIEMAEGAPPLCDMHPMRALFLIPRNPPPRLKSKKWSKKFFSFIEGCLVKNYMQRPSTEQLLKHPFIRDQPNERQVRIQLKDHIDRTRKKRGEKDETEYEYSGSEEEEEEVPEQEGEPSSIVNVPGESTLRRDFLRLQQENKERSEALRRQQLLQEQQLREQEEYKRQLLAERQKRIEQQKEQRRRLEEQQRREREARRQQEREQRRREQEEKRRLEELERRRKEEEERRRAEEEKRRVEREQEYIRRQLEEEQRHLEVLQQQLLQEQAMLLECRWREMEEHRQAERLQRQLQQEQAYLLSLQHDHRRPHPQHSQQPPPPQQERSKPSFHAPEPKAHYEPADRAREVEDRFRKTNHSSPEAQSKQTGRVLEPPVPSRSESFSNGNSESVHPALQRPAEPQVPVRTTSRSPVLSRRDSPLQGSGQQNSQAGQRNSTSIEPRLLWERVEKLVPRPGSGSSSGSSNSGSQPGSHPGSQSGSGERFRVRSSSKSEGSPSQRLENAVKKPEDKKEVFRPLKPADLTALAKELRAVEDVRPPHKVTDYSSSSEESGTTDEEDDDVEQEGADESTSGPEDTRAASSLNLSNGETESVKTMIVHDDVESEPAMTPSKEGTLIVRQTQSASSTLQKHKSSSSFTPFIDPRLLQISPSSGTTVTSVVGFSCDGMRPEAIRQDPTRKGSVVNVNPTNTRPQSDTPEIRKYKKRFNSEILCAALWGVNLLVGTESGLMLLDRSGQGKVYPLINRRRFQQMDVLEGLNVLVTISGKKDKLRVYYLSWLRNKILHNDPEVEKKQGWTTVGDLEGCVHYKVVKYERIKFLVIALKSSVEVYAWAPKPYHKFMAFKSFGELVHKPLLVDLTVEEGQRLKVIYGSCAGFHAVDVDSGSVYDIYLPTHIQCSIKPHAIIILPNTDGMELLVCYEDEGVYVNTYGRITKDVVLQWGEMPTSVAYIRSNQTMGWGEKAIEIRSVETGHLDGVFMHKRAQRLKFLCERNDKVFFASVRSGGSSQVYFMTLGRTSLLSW
# Method: as §1, §2, §3, §4, §6, §7
# [14] = target: MEK1/MAP2K1 (h) (Homo sapiens (Human), UniProt Q02750); test: Kinase selectivity panel; assay type: biochemical; conditions: duplicate, read-out: % inhibition of control values, MEK1/MAP2K1 (h)
# MEK1/MAP2K1 (h), sequence (Q02750 whole entry): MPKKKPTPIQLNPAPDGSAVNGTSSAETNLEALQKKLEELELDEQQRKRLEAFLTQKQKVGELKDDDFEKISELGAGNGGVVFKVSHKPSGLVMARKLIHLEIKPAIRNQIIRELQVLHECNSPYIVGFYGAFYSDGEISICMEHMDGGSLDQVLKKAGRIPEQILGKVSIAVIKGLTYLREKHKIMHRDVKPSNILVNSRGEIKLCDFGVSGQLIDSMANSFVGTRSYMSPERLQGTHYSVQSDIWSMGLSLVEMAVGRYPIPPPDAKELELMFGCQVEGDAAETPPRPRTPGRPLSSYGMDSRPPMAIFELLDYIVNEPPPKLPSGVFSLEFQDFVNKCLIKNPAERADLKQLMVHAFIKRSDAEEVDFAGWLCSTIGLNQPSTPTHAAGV
# Method: as §1, §2, §3, §4, §6, §7
# [15] = target: ERK1 (h) (Homo sapiens (Human), UniProt P27361); test: Kinase selectivity panel; assay type: biochemical; conditions: duplicate, read-out: % inhibition of control values, ERK1 (h)
# ERK1 (h), sequence (P27361 whole entry): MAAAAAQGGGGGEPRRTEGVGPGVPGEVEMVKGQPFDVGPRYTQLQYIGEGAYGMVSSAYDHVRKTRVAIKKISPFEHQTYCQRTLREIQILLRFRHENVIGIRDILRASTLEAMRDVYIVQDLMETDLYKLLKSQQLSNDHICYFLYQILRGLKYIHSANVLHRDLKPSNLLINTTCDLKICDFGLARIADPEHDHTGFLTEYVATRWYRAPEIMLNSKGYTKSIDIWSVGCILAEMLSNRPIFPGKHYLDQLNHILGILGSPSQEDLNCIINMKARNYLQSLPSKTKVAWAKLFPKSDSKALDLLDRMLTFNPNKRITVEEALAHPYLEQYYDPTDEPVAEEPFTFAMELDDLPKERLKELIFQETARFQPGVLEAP
# Method: as §1, §2, §3, §4, §6, §7
# [16] = target: Src kinase (h) (Homo sapiens (Human), UniProt P12931); test: Kinase selectivity panel; assay type: biochemical; conditions: duplicate, read-out: % inhibition of control values, Src kinase (h)
# Src kinase (h), sequence (P12931 whole entry, looked up): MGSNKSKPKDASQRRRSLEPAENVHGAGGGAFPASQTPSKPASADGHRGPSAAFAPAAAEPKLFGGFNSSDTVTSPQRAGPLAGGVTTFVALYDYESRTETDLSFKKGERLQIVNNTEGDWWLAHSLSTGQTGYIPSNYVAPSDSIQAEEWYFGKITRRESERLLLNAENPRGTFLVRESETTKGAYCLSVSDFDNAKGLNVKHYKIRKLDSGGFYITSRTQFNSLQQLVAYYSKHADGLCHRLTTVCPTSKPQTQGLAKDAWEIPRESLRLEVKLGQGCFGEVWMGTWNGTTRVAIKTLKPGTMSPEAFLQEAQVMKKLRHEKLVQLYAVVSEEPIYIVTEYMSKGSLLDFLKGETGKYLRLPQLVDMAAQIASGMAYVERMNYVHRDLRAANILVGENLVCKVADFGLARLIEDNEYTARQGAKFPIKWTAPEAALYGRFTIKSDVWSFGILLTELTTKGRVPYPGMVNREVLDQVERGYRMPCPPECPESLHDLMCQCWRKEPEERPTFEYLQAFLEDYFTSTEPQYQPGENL
# Method: as §1, §2, §3, §4, §6, §7
# [17] = target: TRKA (h) (Homo sapiens (Human), UniProt P04629); test: Kinase selectivity panel; assay type: biochemical; conditions: duplicate, read-out: % inhibition of control values, TRKA (h)
# TRKA (h), sequence (P04629 33-796): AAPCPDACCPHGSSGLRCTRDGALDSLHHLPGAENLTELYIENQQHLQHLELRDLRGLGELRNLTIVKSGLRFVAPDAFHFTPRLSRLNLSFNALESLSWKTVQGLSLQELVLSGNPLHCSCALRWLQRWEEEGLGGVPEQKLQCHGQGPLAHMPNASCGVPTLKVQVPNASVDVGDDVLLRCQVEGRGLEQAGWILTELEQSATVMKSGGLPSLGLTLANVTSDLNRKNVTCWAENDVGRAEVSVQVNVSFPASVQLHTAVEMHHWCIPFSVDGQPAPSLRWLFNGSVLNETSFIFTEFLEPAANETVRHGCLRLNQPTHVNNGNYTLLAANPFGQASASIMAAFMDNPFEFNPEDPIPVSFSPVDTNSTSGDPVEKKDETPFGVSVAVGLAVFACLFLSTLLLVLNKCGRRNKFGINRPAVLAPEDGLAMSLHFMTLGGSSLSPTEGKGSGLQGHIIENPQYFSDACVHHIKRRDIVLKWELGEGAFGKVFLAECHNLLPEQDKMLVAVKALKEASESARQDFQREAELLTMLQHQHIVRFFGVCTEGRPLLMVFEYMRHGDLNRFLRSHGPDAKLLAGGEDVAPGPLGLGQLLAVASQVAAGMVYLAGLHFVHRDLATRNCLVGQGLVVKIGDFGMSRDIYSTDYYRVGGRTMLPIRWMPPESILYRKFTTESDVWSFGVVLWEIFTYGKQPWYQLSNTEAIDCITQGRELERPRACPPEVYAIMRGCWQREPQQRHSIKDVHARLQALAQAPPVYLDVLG
# Method: as §1, §2, §3, §4, §6, §7
# [18] = target: T1, human GSK-3β; test: Activity on human GSK-3β, substrate phosphorylation measured by LANCE technology; assay type: biochemical; conditions: LANCE phosphorylation assay; five concentrations 100 μM to 10 nM, duplicate; read-out: IC50
# Method: Activity on human GSK-3β was assessed using the following methods (according to Meijer et al., Chem. Biol., 2003-10:1255-1266).
# In a first screening assay, compounds were tested in duplicate at a concentration of 10 μM.
# Human recombinant enzyme GSK-3β was incubated for 90 minutes at 22° C. in the presence of compounds or vehicle in a reaction buffer containing ATP plus 100 nM unphosphorylated specific substrate peptide (Ulight-[…]-amide). Substrate phosphorylation was measured by LANCE technology (PerkinElmer, Conn., USA).
# The results, reported in the following Table 4, are expressed as a percent of inhibition of control specific activity obtained in the presence of the test compounds (as % inhibition at 10 μm).
# as §8, §9
smiles,measurement,setting,value
"O=C(O)c1coc(CN2CCC(CNC(=O)c3n[nH]c4ccc(-c5cccc(F)c5F)cc34)CC2)n1 [Compound 12, 2-({4-[({[5-(2,3-Difluorophenyl)-1H-indazol-3-yl]carbonyl}amino)methyl]piperidin-1-yl}methyl)-1,3-oxazole-4-carboxylic acid hydrate]",inhibition at 10 µM,[1],96%
same,inhibition at 10 µM,[2],99%
same,inhibition at 10 µM,[3],42%
same,IC50,[4],10 nM
same,inhibition at 10 µM,[5],81%
same,inhibition at 10 µM,[6],0%
same,inhibition at 10 µM,[7],91%
same,inhibition at 10 µM,[8],87%
same,inhibition at 10 µM,[9],36%
same,inhibition at 10 µM,[10],30%
same,inhibition at 10 µM,[11],77%
same,inhibition at 10 µM,[12],100%
same,Selectivity for GSK-3β compared to the other kinases of the panel,[12],good affinity to GSK-3β when compared to most of other kinases of the same family
same,inhibition at 10 µM,[13],98%
same,inhibition at 10 µM,[14],86%
same,inhibition at 10 µM,[15],85%
same,inhibition at 10 µM,[16],15%
same,inhibition at 10 µM,[17],5%
"COC(=O)c1csc(CN2CCC(CNC(=O)c3n[nH]c4ccc(OC)cc34)CC2)n1 [Compound 7, Methyl 2-{[4-({[(5-methoxy-1H-indazol-3-yl)carbonyl]amino}methyl)piperidin-1-yl]methyl}-1,3-thiazole-4-carboxylate]",inhibition at 10 µM,[1],48%
same,inhibition at 10 µM,[2],88%
same,inhibition at 10 µM,[3],2%
same,IC50,[18],130 nM
same,inhibition at 10 µM,[5],16%
same,inhibition at 10 µM,[6],0%
same,inhibition at 10 µM,[7],33%
same,inhibition at 10 µM,[8],21%
same,inhibition at 10 µM,[9],26%
same,inhibition at 10 µM,[10],0%
same,inhibition at 10 µM,[11],6%
same,inhibition at 10 µM,[12],96%
same,Selectivity for GSK-3β compared to the other kinases of the panel,[12],good selectivity profile
same,inhibition at 10 µM,[13],21%
same,inhibition at 10 µM,[14],27%
same,inhibition at 10 µM,[15],31%
same,inhibition at 10 µM,[16],9%
same,inhibition at 10 µM,[17],1%
